Here are results for ten compounds from ChEMBL document CHEMBL1201862, “PubChem BioAssay data set” (2004).

Structures are written as SMILES.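 Grown in 96-well plates, cells were treated for 48 hours with each compound at five concentrations. Insufficient inhibition: endpoint recorded as highest concentration tested. GI50 = concentration required for 50% inhibition of growth.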 Calls of active or inactive are those of the source. Rule as the data show it: active = GI50 up to about 1.1 µM and inactive = higher.

Test systems include Hs-578T; SK-MEL-2; OVCAR-8; COLO 205; NCI/ADR-RES; A549; RXF 393; SW-620; A498; M14; BT-549; U-251; 786-0; NCI-H460; MDA-MB-231; NCI-H226; TK-10; EKVX; SN12C; SNB-19.
What all share (test): NCI tumour cell line growth inhibition, 48 h

`O=c1oc2ccccc2cc1-c1ccc([N+](=O)[O-])cc1`: the GI50 was 99.5 µM (inactive) in the experiment with Hs-578T; > 100 µM (inactive) in the experiment with SK-MEL-2; 54 µM (inactive) in the experiment with OVCAR-8; > 100 µM (inactive) with COLO 205; > 100 µM (inactive) with NCI/ADR-RES; 85.9 µM (inactive) in the experiment on A549. The GI50 in the experiment with RXF 393 was > 100 µM (inactive); in the experiment with SW-620 it was 25.8 µM (inactive); in the experiment with A498, 85.5 µM (inactive); in the experiment on M14, > 100 µM (inactive); in the experiment on BT-549, 16.5 µM (inactive); with U-251 it was 9.53 µM (inactive). Further, the GI50 in the experiment on 786-0 was 9.29 µM (inactive); in the experiment on NCI-H460 it was 14.6 µM (inactive); in the experiment on MDA-MB-231, > 100 µM (inactive); in the experiment with NCI-H226, > 100 µM (inactive); with TK-10, > 100 µM (inactive); in the experiment with EKVX it was > 100 µM (inactive). Besides, the GI50 with SN12C is > 100 µM (inactive); with SNB-19, 14.7 µM (inactive).

Take `Cc1ccc2c(ccc3[nH]cc(CNc4ccc(NS(C)(=O)=O)cc4)c32)n1`: the GI50 is 27.4 µM (inactive) in the experiment on Hs-578T; 18.6 µM (inactive) with SK-MEL-2; 25.7 µM (inactive) with OVCAR-8; 29 µM (inactive) in the experiment on COLO 205; 81.7 µM (inactive) with NCI/ADR-RES; 23.1 µM (inactive) in the experiment with A549. In addition, the GI50 with RXF 393 was 9.14 µM (inactive); with SW-620 it was 31.2 µM (inactive); in the experiment with A498 it was 15.6 µM (inactive); with M14, 17.6 µM (inactive); in the experiment on BT-549, 35.4 µM (inactive); in the experiment on U-251, 25.9 µM (inactive). For the same compound, the GI50 in the experiment on 786-0 was 17.8 µM (inactive); with NCI-H460, 18.9 µM (inactive); in the experiment on MDA-MB-231, 25.3 µM (inactive); in the experiment with NCI-H226, 20.3 µM (inactive); in the experiment on TK-10, 37.7 µM (inactive); in the experiment with EKVX, 35.4 µM (inactive). In addition, the GI50 in the experiment with SN12C is 27.2 µM (inactive); in the experiment with SNB-19 it was 36.4 µM (inactive).

Consider `CC(=O)c1ccccc1NS(=O)(=O)c1ccc2nc(C)n(NS(=O)(=O)c3ccccc3C(C)=O)c(=O)c2c1`, for which the GI50 with Hs-578T, in the experiment on SK-MEL-2, in the experiment on OVCAR-8, with COLO 205, in the experiment with NCI/ADR-RES and with RXF 393 was > 100 µM (inactive) throughout. Further, the GI50 in the experiment on SW-620, in the experiment with A498, in the experiment on M14, with BT-549, in the experiment on U-251 and in the experiment with 786-0 was > 100 µM (inactive) each time. The GI50 with NCI-H460, in the experiment on MDA-MB-231, with NCI-H226, in the experiment with TK-10, with EKVX and in the experiment with SN12C was > 100 µM (inactive) each time. In addition, the GI50 with SNB-19 is > 100 µM (inactive).

With `Nc1ccn(C2OC(CO)C(O)C2O)c(=O)n1` (centres undefined), the GI50 with Hs-578T was > 481 µM (inactive); in the experiment with SK-MEL-2, 457 µM (inactive); with OVCAR-8, 0.818 µM (active); in the experiment with COLO 205, 139 µM (inactive); in the experiment on NCI/ADR-RES it was 1.16 µM (inactive); with A549, 0.14 µM (active). In addition, the GI50 in the experiment on RXF 393 was 191 µM (inactive); in the experiment with SW-620, 31.4 µM (inactive); in the experiment with A498, 18 µM (inactive); in the experiment with M14 it was 0.186 µM (active); with BT-549, 286 µM (inactive); with U-251 it was 8.89 µM (inactive). Further, the GI50 was 0.514 µM (active) with 786-0; 0.0885 µM (active) in the experiment on NCI-H460; 196 µM (inactive) in the experiment on MDA-MB-231; 239 µM (inactive) in the experiment on NCI-H226; 467 µM (inactive) with TK-10; 267 µM (inactive) with EKVX. Besides, the GI50 in the experiment with SN12C was 2.38 µM (inactive); with SNB-19, 7.98 µM (inactive).

For the compound `CCOc1ccc2nc(NC(=O)C(=O)C(C(=O)c3ccccc3-c3ccccc3)C3OC(=O)c4ccccc43)sc2c1` (centres undefined), the GI50 in the experiment on Hs-578T is 34.8 µM (inactive); in the experiment with SK-MEL-2, 17.8 µM (inactive); in the experiment with OVCAR-8, 8.22 µM (inactive); in the experiment on COLO 205 it was 19.4 µM (inactive); with NCI/ADR-RES it was 12.1 µM (inactive); in the experiment with A549 it was 26.4 µM (inactive). The GI50 is 13.4 µM (inactive) in the experiment with RXF 393; 26.6 µM (inactive) with SW-620; 22.1 µM (inactive) in the experiment with A498; 27.6 µM (inactive) with M14; 16.7 µM (inactive) in the experiment on BT-549; 15 µM (inactive) with U-251. For the same compound, the GI50 was 16.5 µM (inactive) with 786-0; 19.5 µM (inactive) in the experiment on NCI-H460; 25.9 µM (inactive) in the experiment on MDA-MB-231; 5.31 µM (inactive) in the experiment on NCI-H226; 16.5 µM (inactive) in the experiment with TK-10; 19.8 µM (inactive) in the experiment on EKVX. Besides, the GI50 in the experiment on SN12C is 11.7 µM (inactive); with SNB-19, 14 µM (inactive).

With `CCOP(=O)(OCC)C(NC(=O)OCC(Cl)(Cl)Cl)n1nnc(C(=O)OC)c1C(=O)OC` (centres undefined), the GI50 in the experiment on Hs-578T, with SK-MEL-2, in the experiment with OVCAR-8, with COLO 205, in the experiment on NCI/ADR-RES and with A549 was > 100 µM (inactive) each time. In addition, the GI50 with RXF 393, in the experiment on SW-620, with A498, in the experiment on M14, with BT-549 and with U-251 was > 100 µM (inactive) in each case. For the same compound, the GI50 in the experiment with 786-0, with NCI-H460, in the experiment on MDA-MB-231, in the experiment with NCI-H226, in the experiment on TK-10 and in the experiment with EKVX was > 100 µM (inactive) throughout. The GI50 with SN12C was > 10 µM (inactive); with SNB-19 it was > 100 µM (inactive).

With `O=C(/C=C/c1cccc(Oc2ccccc2)c1)NCc1ccc(C(=O)NCCc2ccccc2)cc1`, the GI50 in the experiment on Hs-578T was > 100 µM (inactive); in the experiment on SK-MEL-2, > 100 µM (inactive); in the experiment on OVCAR-8, 24.8 µM (inactive); in the experiment on COLO 205, > 100 µM (inactive); with NCI/ADR-RES, > 100 µM (inactive); in the experiment on A549, > 100 µM (inactive). Moreover, the GI50 in the experiment with RXF 393 was 20 µM (inactive); in the experiment on SW-620, > 100 µM (inactive); with A498, > 100 µM (inactive); with M14, > 100 µM (inactive); in the experiment with BT-549, > 100 µM (inactive); with U-251, 35 µM (inactive). Also, the GI50 with 786-0 is 24.1 µM (inactive); in the experiment on NCI-H460, > 100 µM (inactive); in the experiment on MDA-MB-231, 82.4 µM (inactive); in the experiment with NCI-H226 it was > 100 µM (inactive); in the experiment on TK-10, > 100 µM (inactive); in the experiment on EKVX it was > 100 µM (inactive). Further, the GI50 is > 100 µM (inactive) with SN12C and 29.9 µM (inactive) in the experiment with SNB-19.

In the case of `NC(Cc1ncccn1)C(=O)O` (centres undefined), the GI50 in the experiment with Hs-578T, in the experiment with SK-MEL-2, in the experiment with OVCAR-8, in the experiment with COLO 205, in the experiment on NCI/ADR-RES and in the experiment with A549 was > 100 µM (inactive) throughout. For the same compound, the GI50 in the experiment on RXF 393, in the experiment on SW-620, in the experiment on A498, in the experiment on M14, with BT-549 and in the experiment on U-251 was > 100 µM (inactive) each time. In addition, the GI50 in the experiment on 786-0, with NCI-H460, in the experiment with MDA-MB-231, with NCI-H226, in the experiment with TK-10 and in the experiment with EKVX was > 100 µM (inactive) each time. The GI50 in the experiment on SN12C and in the experiment on SNB-19 was > 100 µM (inactive) in each case.

Take `O=C(O)C(F)(F)C(F)(F)C(F)(F)C(F)(F)C(=O)O`: the GI50 in the experiment on Hs-578T, in the experiment on SK-MEL-2, with OVCAR-8, with COLO 205, in the experiment on NCI/ADR-RES and in the experiment on A549 was > 100 µM (inactive) throughout. In addition, the GI50 in the experiment on RXF 393, with SW-620, with A498, in the experiment on M14, with BT-549 and in the experiment on U-251 was > 100 µM (inactive) each time. The GI50 in the experiment on 786-0, in the experiment on NCI-H460, in the experiment on MDA-MB-231, with NCI-H226, in the experiment on TK-10 and in the experiment with EKVX was > 100 µM (inactive) in each case. Besides, the GI50 in the experiment on SN12C and with SNB-19 was > 100 µM (inactive) throughout.

Consider `O=C(c1cccs1)N1CCN(C(=O)c2cccs2)C1=S`, for which the GI50 is 10.7 µM (inactive) with Hs-578T; 11.9 µM (inactive) in the experiment on SK-MEL-2; 5.32 µM (inactive) with OVCAR-8; 7.35 µM (inactive) in the experiment with COLO 205; 16.7 µM (inactive) with NCI/ADR-RES; 3.96 µM (inactive) in the experiment with A549. The GI50 was 2.6 µM (inactive) in the experiment on RXF 393; 5.01 µM (inactive) with SW-620; 15.1 µM (inactive) with A498; 3.83 µM (inactive) with M14; 5.4 µM (inactive) in the experiment on BT-549; 5.92 µM (inactive) in the experiment with U-251. In addition, the GI50 was 2.75 µM (inactive) in the experiment with 786-0; 6.75 µM (inactive) in the experiment with NCI-H460; 6.38 µM (inactive) in the experiment with MDA-MB-231; 15.8 µM (inactive) in the experiment on NCI-H226; 5.4 µM (inactive) in the experiment with TK-10; 13.9 µM (inactive) in the experiment with EKVX. The GI50 was 2.95 µM (inactive) in the experiment on SN12C and 12.4 µM (inactive) in the experiment with SNB-19.
